Assay results as given in ChEMBL document CHEMBL1201862, “PubChem BioAssay data set” (2004).
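Interpolation was linear, between the two tested concentrations surrounding the appropriate level; five concentrations were tested over 48 hours in 96-well plates. GI50 marks 50% less growth.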 Activity calls are given as the source filed them. Cut-off read from the data, not from the text of the source: active = GI50 up to about 1.1 µM and inactive = higher.

Experiments:
Test in all cases: NCI anticancer screen, dose series, 48 h
786-0 = test system: 786-0
SK-MEL-5 = test system: SK-MEL-5
NCI-H226 = test system: NCI-H226
NCI-H522 = test system: NCI-H522
OVCAR-4 = test system: OVCAR-4
MCF7 = test system: MCF7
TK-10 = test system: TK-10
MDA-N = test system: MDA-N
SW-620 = test system: SW-620
ACHN = test system: ACHN
UACC-257 = test system: UACC-257
HT-29 = test system: HT-29
UACC-62 = test system: UACC-62
IGROV-1 = test system: IGROV-1
CAKI-1 = test system: CAKI-1
K562 = test system: K562
SK-MEL-2 = test system: SK-MEL-2
M14 = test system: M14
SK-MEL-28 = test system: SK-MEL-28
SR = test system: SR
T47D = test system: T47D
U-251 = test system: U-251
SNB-19 = test system: SNB-19
NCI-H23 = test system: NCI-H23
KM12 = test system: KM12
A549 = test system: A549
CCRF-CEM = test system: CCRF-CEM
SF-295 = test system: SF-295
SK-OV-3 = test system: SK-OV-3
OVCAR-8 = test system: OVCAR-8
HL-60 = test system: HL-60
HOP-62 = test system: HOP-62
PC-3 = test system: PC-3
Malme-3M = test system: Malme-3M
HCT-15 = test system: HCT-15
OVCAR-3 = test system: OVCAR-3
RPMI-8226 = test system: RPMI-8226
NCI-H460 = test system: NCI-H460
LOX IMVI = test system: LOX IMVI
MDA-MB-435 = test system: MDA-MB-435
HOP-92 = test system: HOP-92
MOLT-4 = test system: MOLT-4
OVCAR-5 = test system: OVCAR-5
SF-268 = test system: SF-268
NCI/ADR-RES = test system: NCI/ADR-RES
EKVX = test system: EKVX
COLO 205 = test system: COLO 205
HCT-116 = test system: HCT-116
SN12C = test system: SN12C
UO-31 = test system: UO-31
BT-549 = test system: BT-549
SNB-75 = test system: SNB-75
Hs-578T = test system: Hs-578T
DU-145 = test system: DU-145
A498 = test system: A498
MDA-MB-231 = test system: MDA-MB-231
HCC 2998 = test system: HCC 2998
SF-539 = test system: SF-539

c1ccc(/N=C(/Nc2ccccc2)N2CCCC2)cc1
GI50 (786-0): > 100 µM (inactive) | GI50 (SK-MEL-5): > 100 µM (inactive) | GI50 (NCI-H226): > 100 µM (inactive) | GI50 (NCI-H522): > 100 µM (inactive) | GI50 (OVCAR-4): > 100 µM (inactive) | GI50 (MCF7): > 100 µM (inactive) | GI50 (TK-10): > 100 µM (inactive) | GI50 (MDA-N): > 100 µM (inactive) | GI50 (SW-620): > 100 µM (inactive) | GI50 (ACHN): > 100 µM (inactive) | GI50 (UACC-257): > 100 µM (inactive) | GI50 (HT-29): > 100 µM (inactive) | GI50 (UACC-62): > 100 µM (inactive) | GI50 (IGROV-1): > 100 µM (inactive) | GI50 (CAKI-1): > 100 µM (inactive) | GI50 (K562): > 100 µM (inactive) | GI50 (SK-MEL-2): > 100 µM (inactive) | GI50 (M14): > 100 µM (inactive) | GI50 (SK-MEL-28): > 100 µM (inactive) | GI50 (SR): > 100 µM (inactive) | GI50 (T47D): > 100 µM (inactive) | GI50 (U-251): > 100 µM (inactive) | GI50 (SNB-19): > 100 µM (inactive) | GI50 (NCI-H23): > 100 µM (inactive) | GI50 (KM12): > 100 µM (inactive) | GI50 (A549): > 100 µM (inactive) | GI50 (CCRF-CEM): > 100 µM (inactive) | GI50 (SF-295): > 100 µM (inactive) | GI50 (SK-OV-3): > 100 µM (inactive) | GI50 (OVCAR-8): > 100 µM (inactive) | GI50 (HL-60): > 100 µM (inactive) | GI50 (HOP-62): > 100 µM (inactive) | GI50 (PC-3): 79.1 µM (inactive) | GI50 (Malme-3M): > 100 µM (inactive) | GI50 (HCT-15): > 100 µM | GI50 (OVCAR-3): > 100 µM (inactive) | GI50 (RPMI-8226): > 100 µM (inactive) | GI50 (NCI-H460): > 100 µM (inactive) | GI50 (LOX IMVI): > 100 µM (inactive) | GI50 (MDA-MB-435): > 100 µM (inactive) | GI50 (HOP-92): > 100 µM (inactive) | GI50 (MOLT-4): > 100 µM (inactive) | GI50 (OVCAR-5): > 100 µM (inactive) | GI50 (SF-268): > 100 µM (inactive) | GI50 (NCI/ADR-RES): > 100 µM (inactive) | GI50 (EKVX): > 100 µM (inactive) | GI50 (COLO 205): > 100 µM (inactive) | GI50 (HCT-116): > 100 µM (inactive) | GI50 (SN12C): > 100 µM (inactive) | GI50 (UO-31): > 100 µM (inactive) | GI50 (BT-549): > 100 µM (inactive) | GI50 (SNB-75): > 100 µM (inactive) | GI50 (Hs-578T): > 100 µM (inactive) | GI50 (DU-145): > 100 µM (inactive)

COc1ccc(CN(Cc2ccc(OC)cc2)C(=O)CC2(O)CCc3ccccc3C2)cc1 (stereo not given)
GI50 (786-0): > 100 µM (inactive) | GI50 (SK-MEL-5): 28.8 µM (inactive) | GI50 (NCI-H226): 15.1 µM (inactive) | GI50 (NCI-H522): 24 µM (inactive) | GI50 (OVCAR-4): 57 µM (inactive) | GI50 (MCF7): 41.2 µM (inactive) | GI50 (TK-10): > 100 µM (inactive) | GI50 (SW-620): > 100 µM (inactive) | GI50 (ACHN): 49.8 µM (inactive) | GI50 (A498): > 100 µM (inactive) | GI50 (UACC-257): 42.8 µM (inactive) | GI50 (HT-29): 37.4 µM (inactive) | GI50 (UACC-62): 50.9 µM (inactive) | GI50 (IGROV-1): > 100 µM (inactive) | GI50 (CAKI-1): 43.2 µM (inactive) | GI50 (K562): > 100 µM (inactive) | GI50 (SK-MEL-2): 60 µM (inactive) | GI50 (M14): 66.1 µM (inactive) | GI50 (SK-MEL-28): > 100 µM (inactive) | GI50 (SR): 16 µM (inactive) | GI50 (T47D): 8.71 µM (inactive) | GI50 (MDA-MB-231): > 100 µM (inactive) | GI50 (HCC 2998): 68.9 µM (inactive) | GI50 (U-251): 63.1 µM (inactive) | GI50 (SNB-19): > 100 µM (inactive) | GI50 (NCI-H23): > 100 µM (inactive) | GI50 (KM12): 26 µM (inactive) | GI50 (A549): 30.1 µM (inactive) | GI50 (CCRF-CEM): 16.6 µM (inactive) | GI50 (SF-295): 27.1 µM (inactive) | GI50 (SK-OV-3): > 100 µM (inactive) | GI50 (OVCAR-8): 37 µM (inactive) | GI50 (HL-60): 17.8 µM (inactive) | GI50 (SF-539): > 100 µM (inactive) | GI50 (HOP-62): > 100 µM (inactive) | GI50 (PC-3): 17.2 µM (inactive) | GI50 (Malme-3M): 28.2 µM (inactive) | GI50 (HCT-15): 54.6 µM | GI50 (OVCAR-3): > 100 µM (inactive) | GI50 (RPMI-8226): 62.2 µM (inactive) | GI50 (NCI-H460): 44 µM (inactive) | GI50 (LOX IMVI): 52.4 µM (inactive) | GI50 (MDA-MB-435): 34.8 µM (inactive) | GI50 (HOP-92): > 100 µM (inactive) | GI50 (MOLT-4): 7.89 µM (inactive) | GI50 (OVCAR-5): > 100 µM (inactive) | GI50 (NCI/ADR-RES): 12.9 µM (inactive) | GI50 (EKVX): 37.5 µM (inactive) | GI50 (COLO 205): 21.8 µM (inactive) | GI50 (HCT-116): 38 µM (inactive) | GI50 (SN12C): > 100 µM (inactive) | GI50 (UO-31): 15.1 µM (inactive) | GI50 (BT-549): > 100 µM (inactive) | GI50 (SNB-75): 30.1 µM (inactive) | GI50 (Hs-578T): 40.3 µM (inactive) | GI50 (DU-145): > 100 µM (inactive)
